# Read-outs that look alike come from different tables or passages of the source.
# Tests used:
# Format in all cases: physicochemical
# [1] = Exposure to elevated RH (75%, 85%, 97%) at room temperature
# Protocol: Samples of Compound 1-ethanolate Form A were exposed to elevated RH (75%, 85% and 97%) at room temperature for approximately 3 hours and 24 hours (Table 8).
# [2] = Solvent-mediated interconversion slurries with seeds of Form A and Form B; conditions: slurries in 3% DCM in heptane and 5% EtOH in heptane, room temperature, ~2 weeks, XRPD
# Protocol: Saturated solutions of Compound 1-ethanolate were prepared in 3% DCM in heptane and 5% EtOH in heptane.
# Approximately equal amounts of Form A, and Form B (containing a minor amount of Form A) were added to the filtered saturated solutions, and the suspensions were slurried at room temperature for ˜2 weeks, and the isolated solids were observed by polarized light microscopy (PLM) and analyzed by XRPD.
# [3] = Separate DVS analysis with stepped increase in relative humidity, 0% RH to 60% RH, 4 h per step, then XRPD; conditions: for Mass change in stepped DVS: at humidities higher than 40% RH, loss of ethanol from the boronate ester complex; for Mass increase in stepped DVS: from 0% RH to 40% RH; for Retention of crystal structure (XRPD after stepped DVS): up to 60% r.h.
# Protocol: A second set of DVS experiments were conducted using a stepped method from 0% RH to 60% RH with steps of 10% RH and four hours of equilibration at each humidity value. […] The samples were placed on an aluminum holder and allowed to equilibrate at 0% RH before starting the following predefined humidity program; hold for 4 h at 0% RH, increase humidity by a step of 10% RH, hold for 4 h. repeat the above two steps five times until a value of 60% RH has been reached. The samples were then analyzed for crystallinity using the second set of XRPD conditions.
# [4] = Dynamic vapor sorption (DVS) analysis, 5% RH to 95% RH and back to 5% RH at 10% RH increments; conditions: for State of sample after DVS analysis: after 5-95-5% RH cycle
# Protocol: Moisture sorption/desorption data were collected on a VTI SGA-100 Vapor Sorption Analyzer. NaCl and PVP were used as calibration standards. Samples were not dried prior to analysis. Sorption and desorption data were collected over a range from 5% to 95% RH at 10% RH increments under a nitrogen purge (RH=relative humidity). The equilibrium criterion used for analysis was less than 0.0100% weight change in 5 minutes with a maximum equilibration time of 3 hours. Data were not corrected for the initial moisture content of the samples.
# DVS analysis of Compound 1-ethanolate Form A was conducted from 5% relative humidity (RH) to 95% RH and back to 5% RH at 10% RH increments (FIG. 7). […] A loss of 1.8 wt % was observed between 55% RH and 65% RH possibly due to water displacing ethanol. After 65% RH, the sample gained 3.8 wt % between 65% RH and 95% RH. […] Weight loss (˜7.6 wt %) was observed between 95% RH and 5% RH (i.e., desorption). After DVS analysis, it was noted that the sample had deliquesced.
# DVS analysis of Compound 1-ethanolate Form B (with minor Form A) was conducted from 5% RH to 95% RH and back to 5% RH at 10% RH increments (FIG. 12). The DVS isotherm of Form B is qualitatively similar to that of Form A. Form B lost 0.2 wt % upon equilibration at ˜5% RH. […] A weight loss of 1.1% was observed between 45% RH and 55% RH, possibly due to the displacement of the ethanol with water. After 55% RH, the sample gained 3.3 wt % between 55% RH and 95% RH. […] Weight loss (˜5.8 w1%) was observed during desorption from 95% RH to 5% RH.
# [5] = Visual solubility estimates by aliquot addition at ambient temperature
# Protocol: Visual solubility estimates for Compound 1-ethanolate Form A were determined in a variety of solvents and solvent mixtures using an aliquot addition method to aid in experimental design.
# [6] = Mass spectrometric analysis of conversion of the ethanolate to Compound 1 in water; conditions: in the presence of water, high-resolution MS
# Protocol: High resolution mass spectra from 50 to 3000 Da were collected with a Bruker Maxis —Plus QTOF mass spectrometer using an electrospray ionization source. The instrument was controlled and data analyzed using Bruker Compass v.4.4 software. The mass spectrometer was calibrated immediately prior to analyses and was operated in positive ionization mode using an Electrospray Ionization (ESI) source. Samples were prepared by dilution in absolute ethanol (without denaturants) or HPLC grade water prior to direct infusion into the ion source.
# Mass spectrometric (MS) analyses were performed to confirm the structure of Compound 1-ethanolate Form A, and evaluate the ability of EtOH to dissociate from Compound 1-ethanolate in water. Compound 1-ethanolate Form A, and an amorphous preparation of ((2-ethylbutanoyl)oxy)methyl (R)-2-hydroxy-3-propionamido-3,4-dihydro-2H-benzo[e][1,2]oxaborinine-8-carboxylate were diluted in absolute EtOH or water and analyzed by high-resolution mass spectrometry. A sample of amorphous ((2-ethylbutanoyl)oxy)methyl (R)-2-hydroxy-3-propionamido-3.4-dihydro-2H-benzo[e]|1.2]oxaborinine-8-carboxylate, dissolved in absolute EtOH, was spiked with water prior to analysis. […] The exact mass observed for sodiated Compound 1-ethanolate was 442.2007 (difference=1.4 ppm vs. theoretical: C21H30BNO7Na: 442.2013 Da). […]
smiles,measurement,setting,value
"CCOB1Oc2c(cccc2C(=O)OCOC(=O)C(CC)CC)C[C@@H]1NC(=O)CC [Compound 1-ethanolate Form A, ((2-ethylbutanoyl)oxy)methyl (R)-2-ethoxy-3-propionamido-3,4-dihydro-2H-benzo[e][1,2]oxaborinine-8-carboxylate]",Observation on exposure to elevated RH,"[1]; 75% RH, after 3 hours",no deliquescence
same,Observation on exposure to elevated RH,"[1]; 75% RH, after 24 hours",began deliquescing
same,Observation on exposure to elevated RH,"[1]; 85% RH, after 3 hours",appeared wet with solids present
same,Observation on exposure to elevated RH,"[1]; 85% RH, after 24 hours",deliquesced
same,Observation on exposure to elevated RH,"[1]; 97% RH, after 3 hours",deliquescence was observed
same,Observation on exposure to elevated RH,"[1]; 97% RH, after 24 hours",deliquesced
same,Thermodynamically stable polymorph,[2],the stable form at room temperature
same,Thermodynamically stable polymorph,[2]; listed as Polymorph form A,thermodynamically stable
same,Mass change in stepped DVS,[3],a decrease in mass was observed
same,Mass increase in stepped DVS,[3],"0.3 wt, -%"
same,Retention of crystal structure (XRPD after stepped DVS),[3],retained its predominant crystal structure for at least four hours
same,State of sample after DVS analysis,[4],deliquesced
same,Weight loss in DVS (desorption),[4]; between 95% RH and 5% RH,~7.6 wt %
same,Weight % chg,"[4]; desorption, elapsed 731.2 min, sample RH 85.19%, 25.19 °C",0.633%
same,Weight % chg,"[4]; desorption, elapsed 918.9 min, sample RH 74.98%, 25.19 °C",−0.694%
same,Weight % chg,"[4]; desorption, elapsed 1106.5 min, sample RH 65.14%, 25.19 °C",−1.716%
same,Weight % chg,"[4]; desorption, elapsed 1296.4 min, sample RH 54.99%, 25.19 °C",−2.592%
same,Weight % chg,"[4]; desorption, elapsed 1483.9 min, sample RH 45.11%, 25.19 °C",−3.308%
same,Weight % chg,"[4]; desorption, elapsed 1671.4 min, sample RH 35.03%, 25.19 °C",−3.916%
same,Weight % chg,"[4]; desorption, elapsed 1859.0 min, sample RH 25.06%, 25.19 °C",−4.432%
same,Weight % chg,"[4]; desorption, elapsed 2044.7 min, sample RH 14.87%, 25.19 °C",−4.883%
same,Weight % chg,"[4]; desorption, elapsed 2228.6 min, sample RH 5.67%, 25.19 °C",−5.275%
same,Hygroscopicity,[4]; from 5-55% RH,non-hygroscopic
same,Weight gain in DVS,"[4]; sorption, between 5% RH and 55% RH",~0.3 wt %
same,Weight loss in DVS,"[4]; sorption, between 55% RH and 65% RH, possibly water displacing ethanol",1.8 wt %
same,Weight gain in DVS,"[4]; sorption, between 65% RH and 95% RH",3.8 wt %
same,Weight % chg,"[4]; sorption, elapsed 21.1 min, sample RH 5.15%, 25.19 °C",−0.043%
same,Weight % chg,"[4]; sorption, elapsed 39.7 min, sample RH 14.86%, 25.19 °C",−0.003%
same,Weight % chg,"[4]; sorption, elapsed 51.8 min, sample RH 24.90%, 25.20 °C",0.051%
same,Weight % chg,"[4]; sorption, elapsed 64.8 min, sample RH 34.83%, 25.19 °C",0.120%
same,Weight % chg,"[4]; sorption, elapsed 78.3 min, sample RH 44.87%, 25.19 °C",0.214%
same,Weight % chg,"[4]; sorption, elapsed 91.2 min, sample RH 54.86%, 25.18 °C",0.316%
same,Weight % chg,"[4]; sorption, elapsed 281.1 min, sample RH 65.03%, 25.18 °C",−1.494%
same,Weight % chg,"[4]; sorption, elapsed 294.7 min, sample RH 74.65%, 25.20 °C",−1.170%
same,Weight % chg,"[4]; sorption, elapsed 356.0 min, sample RH 84.85%, 25.19 °C",0.451%
same,Weight % chg,"[4]; sorption, elapsed 543.7 min, sample RH 94.83%, 25.19 °C",2.311%
same,Weight % chg,"[4]; start, elapsed 0.1 min, sample RH 0.99%, 25.18 °C",0.000%
same,solubility,[5]; Cyclohexane,<1 mg/mL
same,solubility,[5]; Heptane,<1 mg/mL
same,solubility,"[5]; organic solvent or mixture, thermodynamic from solid, ACN, read-out: Solubility",> 66 mg/mL
same,solubility,"[5]; organic solvent or mixture, thermodynamic from solid, Acetone, read-out: Solubility",34 mg/mL
same,solubility,"[5]; organic solvent or mixture, thermodynamic from solid, Anisole, read-out: Solubility",35 mg/mL
same,solubility,"[5]; organic solvent or mixture, thermodynamic from solid, Chloroform, read-out: Solubility",36 mg/mL
same,solubility,"[5]; organic solvent or mixture, thermodynamic from solid, Cyclohexane, read-out: Solubility",< 1 mg/mL
same,solubility,"[5]; organic solvent or mixture, thermodynamic from solid, Cyclohexane:EtOAc 3:1 by volume, read-out: Solubility",4 mg/mL
same,solubility,"[5]; organic solvent or mixture, thermodynamic from solid, Cyclohexane:EtOH 90:10 by volume, read-out: Solubility",17 mg/mL
same,solubility,"[5]; organic solvent or mixture, thermodynamic from solid, DCM, read-out: Solubility",34 mg/mL
same,solubility,"[5]; organic solvent or mixture, thermodynamic from solid, DMF, read-out: Solubility",> 63 mg/mL
same,solubility,"[5]; organic solvent or mixture, thermodynamic from solid, DMSO, read-out: Solubility",> 71 mg/mL
same,solubility,"[5]; organic solvent or mixture, thermodynamic from solid, Diethyl Ether, read-out: Solubility",9 mg/mL
same,solubility,"[5]; organic solvent or mixture, thermodynamic from solid, EtOAc, read-out: Solubility",> 68 mg/mL
same,solubility,"[5]; organic solvent or mixture, thermodynamic from solid, EtOH, read-out: Solubility",> 68 mg/mL
same,solubility,"[5]; organic solvent or mixture, thermodynamic from solid, Heptane, read-out: Solubility",< 1 mg/mL
same,solubility,"[5]; organic solvent or mixture, thermodynamic from solid, Heptane:MEK 2:1 by volume, read-out: Solubility",22 mg/mL
same,solubility,"[5]; organic solvent or mixture, thermodynamic from solid, IPA, read-out: Solubility",34 mg/mL
same,solubility,"[5]; organic solvent or mixture, thermodynamic from solid, IPOAc, read-out: Solubility",> 66 mg/mL
same,solubility,"[5]; organic solvent or mixture, thermodynamic from solid, MEK, read-out: Solubility",37 mg/mL
same,solubility,"[5]; organic solvent or mixture, thermodynamic from solid, MTBE, read-out: Solubility",22 mg/mL
same,solubility,"[5]; organic solvent or mixture, thermodynamic from solid, Nitromethane, read-out: Solubility",> 68 mg/mL
same,solubility,"[5]; organic solvent or mixture, thermodynamic from solid, TFE, read-out: Solubility",> 66 mg/mL
same,solubility,"[5]; organic solvent or mixture, thermodynamic from solid, THF, read-out: Solubility",> 64 mg/mL
same,solubility,"[5]; organic solvent or mixture, thermodynamic from solid, Toluene, read-out: Solubility",33 mg/mL
same,solubility,"[5]; organic solvent or mixture, thermodynamic from solid, Xylene, read-out: Solubility",17 mg/mL
"CCOB1Oc2c(cccc2C(=O)OCOC(=O)C(CC)CC)C[C@@H]1NC(=O)CC [Compound 1-ethanolate Form B, ((2-ethylbutanoyl)oxy)methyl (R)-2-ethoxy-3-propionamido-3,4-dihydro-2H-benzo[e][1,2]oxaborinine-8-carboxylate]",Mass change in stepped DVS,[3],a decrease in mass was observed
same,Mass increase in stepped DVS,[3],"0.4 wt, -%"
same,Retention of crystal structure (XRPD after stepped DVS),[3],retained its predominant crystal structure for at least four hours
same,State of sample after DVS analysis,[4],appeared to have deliquesced
same,Weight loss in DVS (desorption),[4]; desorption from 95% RH to 5% RH,~5.8 w1%
same,Weight loss upon equilibration,[4]; equilibration at ~5% RH,0.2 wt %
same,Weight gain in DVS,"[4]; sorption, between 5% RH and 45% RH",~0.5 wt %
same,Weight loss in DVS,"[4]; sorption, between 45% RH and 55% RH, possibly displacement of ethanol with water",1.1%
same,Weight gain in DVS,"[4]; sorption, between 55% RH and 95% RH",3.3 wt %
"CCOB1Oc2c(cccc2C(=O)OCOC(=O)C(CC)CC)C[C@@H]1NC(=O)CC [Compound 1-ethanolate, ((2-ethylbutanoyl)oxy)methyl (R)-2-ethoxy-3-propionamido-3,4-dihydro-2H-benzo[e][1,2]oxaborinine-8-carboxylate]",Conversion to the free boronic acid (Compound 1),[6],rapidly converted to the free boronic acid
